Laboratory results: the NIST ThermoML archive (doi:10.1021/je049610v)

How the values were obtained:
[1] = xn = mol fraction of the nth substance listed; conditions: 101 kPa, Liquid
[2] = refractive index (Na D-line) (dimensionless); xn = mol fraction of the nth substance listed; conditions: 101 kPa, Liquid

CCOC(=O)C(=O)OCC [diethyl ethanedioate] + COc1ccccc1
Conditions | mass density, 298.15 K [kg/m3] | mass density, 303.15 K [kg/m3] | mass density, 308.15 K [kg/m3] | refractive index, 298.15 K | refractive index, 303.15 K | refractive index, 308.15 K | speed of sound, 298.15 K [m/s] | viscosity, 298.15 K [mPa·s] | viscosity, 303.15 K [mPa·s] | viscosity, 308.15 K [mPa·s]
[1], x2 = 0 | 1072.3 | 1066.6 | 1060.7 | – | – | – | 1267 | 1.844 | 1.659 | 1.508
[1], x2 = 0.1017 | 1065.8 | 1060.1 | 1054.3 | – | – | – | 1280 | 1.732 | 1.578 | 1.424
[1], x2 = 0.1976 | 1059.5 | 1053.8 | 1048.1 | – | – | – | 1293 | 1.64 | 1.497 | 1.354
[1], x2 = 0.2978 | 1052.6 | 1047.1 | 1041.4 | – | – | – | 1307 | 1.55 | 1.416 | 1.282
[1], x2 = 0.3621 | 1047.7 | 1042.3 | 1036.7 | – | – | – | 1316 | 1.495 | 1.367 | 1.239
[1], x2 = 0.4971 | 1037.4 | 1031.9 | 1026.5 | – | – | – | 1334 | 1.38 | 1.265 | 1.149
[1], x2 = 0.5975 | 1029.1 | 1023.8 | 1018.5 | – | – | – | 1348 | 1.301 | 1.195 | 1.089
[1], x2 = 0.6977 | 1020.1 | 1014.9 | 1009.7 | – | – | – | 1362 | 1.223 | 1.126 | 1.03
[1], x2 = 0.8016 | 1010.1 | 1005.3 | 1000 | – | – | – | 1377 | 1.14 | 1.054 | 0.968
[1], x2 = 0.9007 | 999.9 | 995.4 | 990.2 | – | – | – | 1393 | 1.061 | 0.985 | 0.91
[2], x2 = 0 | – | – | – | 1.4084 | 1.4061 | 1.4039 | – | – | – | –
[2], x2 = 0.1017 | – | – | – | 1.4171 | 1.4148 | 1.4124 | – | – | – | –
[2], x2 = 0.1976 | – | – | – | 1.4257 | 1.4232 | 1.4207 | – | – | – | –
[2], x2 = 0.2978 | – | – | – | 1.435 | 1.4325 | 1.43 | – | – | – | –
[2], x2 = 0.3621 | – | – | – | 1.4412 | 1.4388 | 1.4362 | – | – | – | –
[2], x2 = 0.4971 | – | – | – | 1.4551 | 1.4525 | 1.4499 | – | – | – | –
[2], x2 = 0.5975 | – | – | – | 1.466 | 1.4634 | 1.4607 | – | – | – | –
[2], x2 = 0.6977 | – | – | – | 1.4773 | 1.4746 | 1.4718 | – | – | – | –
[2], x2 = 0.8016 | – | – | – | 1.4896 | 1.4868 | 1.484 | – | – | – | –
[2], x2 = 0.9007 | – | – | – | 1.5021 | 1.4991 | 1.4962 | – | – | – | –

COc1ccccc1 [anisole] + ClC(Cl)=C(Cl)Cl
x1 = 1
Conditions | mass density, 298.15 K [kg/m3] | mass density, 303.15 K [kg/m3] | mass density, 308.15 K [kg/m3] | refractive index, 298.15 K | refractive index, 303.15 K | refractive index, 308.15 K | speed of sound, 298.15 K [m/s] | viscosity, 298.15 K [mPa·s] | viscosity, 303.15 K [mPa·s] | viscosity, 308.15 K [mPa·s]
[1] | 988.9 | 984.1 | 979.4 | – | – | – | 1410 | 0.992 | 0.919 | 0.853
[2] | – | – | – | 1.5148 | 1.5124 | 1.5092 | – | – | – | –
